According to ChEMBL document CHEMBL5346903, “Discovery of novel and bioavailable histone deacetylases and cyclin-dependent kinases dual inhibitor to impair the stemness of leukemia cells” (Eur J Med Chem, 2023):
Each block holds one molecule with its values, some of them ahead of it.

What was measured:
[1] = system: U-937; assay: Induction of apoptosis in human U-937 cells assessed as early apoptotic cells at 5 uM incubated for 48 hrs by annexin V-FITC/PI satining based flow cytometry (reference value: 1.93 %); assay type: functional
[2] = system: HL-60; assay: Induction of apoptosis in human HL-60 cells assessed as late apoptotic cells at 1.2 uM incubated for 48 hrs by annexin V-FITC/PI satining based flow cytometry (reference value: 2.83 %); assay type: functional
[3] = system: HL-60; assay: Induction of apoptosis in human HL-60 cells assessed as late apoptotic cells at 5 uM incubated for 48 hrs by annexin V-FITC/PI satining based flow cytometry (reference value: 2.83 %); assay type: functional
[4] = system: U-937; assay: Induction of differentiation in human U-937 cells assessed as increase in CD11b positive cells at 0.6 uM incubated for 48 hrs by FITC staining based flow cytometry (reference value: […] %); assay type: functional
[5] = system: U-937; assay: Induction of apoptosis in human U-937 cells assessed as early apoptotic cells at 0.6 uM incubated for 48 hrs by annexin V-FITC/PI satining based flow cytometry (reference value: 1.93 %); assay type: functional
[6] = system: U-937; assay: Induction of apoptosis in human U-937 cells assessed as viable cells at 0.6 uM incubated for 48 hrs by annexin V-FITC/PI satining based flow cytometry (reference value: 93.7 %); assay type: functional; settings: read-out: Activity
[7] = system: HL-60; assay: Induction of apoptosis in human HL-60 cells assessed as necrotic cells at 0.6 uM incubated for 48 hrs by annexin V-FITC/PI satining based flow cytometry (reference value: 0.04 %); assay type: functional
[8] = system: HL-60; assay: Induction of differentiation in human HL-60 cells assessed as increase in CD11b positive cells at 0.6 uM incubated for 24 hrs by FITC staining based flow cytometry (reference value: 1.12 %); assay type: functional
[9] = system: U-937; assay: Induction of apoptosis in human U-937 cells assessed as late apoptotic cells at 1.2 uM incubated for 48 hrs by annexin V-FITC/PI satining based flow cytometry (reference value: 4.23 %); assay type: functional
[10] = system: U-937; assay: Induction of differentiation in human U-937 cells assessed as increase in CD11b positive cells at 5 uM incubated for 48 hrs by FITC staining based flow cytometry (reference value: […] %); assay type: functional
[11] = Cytotoxicity against human Kasumi 1 cells assessed as CD34positive CD38negative leukemic stem cell-like cells sub-population at 2 uM incubated for 24 hrs by APC/FITC satining based flow cytometry (reference value: 95.8 %); assay type: functional
[12] = system: HL-60; assay: Induction of apoptosis in human HL-60 cells assessed as viable cells at 0.5 uM incubated for 48 hrs by annexin V-FITC/PI satining based flow cytometry (reference value: 97.4 %); assay type: functional; settings: read-out: Activity
[13] = target: CDK6/cyclin D3 (Homo sapiens) (UniProt P30281+Q00534); assay: Inhibition of CDK6/cyclinD3 (unknown origin) at 100 nM preincubated for 20 mins followed by [gamma-33P]ATP addition measured after 120 mins in presence of ATP by Hot-SpotSM kinase assay relative to control; assay type: protein-complex assay; settings: time 140.0 min
[14] = target: Cyclin-dependent kinase 2/cyclin E1 (Homo sapiens) (UniProt P24864+P24941); settings: dose 100.0 nM, time 140.0 min
[15] = target: Histone deacetylase 5 (Homo sapiens, UniProt Q9UQL6); assay: Inhibition of recombinant human HDAC5 using HDAC substrate incubated for 30 mins by fluorescence based assay
[16] = target: CDK2/Cyclin A2 (Homo sapiens) (UniProt P24941+P20248); settings: dose 100.0 nM, time 140.0 min
[17] = system: U-937; assay: Induction of apoptosis in human U-937 cells assessed as viable cells at 0.2 uM incubated for 48 hrs by annexin V-FITC/PI satining based flow cytometry (reference value: 90.0 %); assay type: functional; settings: read-out: Activity
[18] = target: Protein deacetylase HDAC6 (Homo sapiens, UniProt Q9UBN7); assay: Inhibition of recombinant human HDAC6 using HDAC substrate incubated for 30 mins by fluorescence based assay
Protein deacetylase HDAC6, sequence (Q9UBN7 whole entry): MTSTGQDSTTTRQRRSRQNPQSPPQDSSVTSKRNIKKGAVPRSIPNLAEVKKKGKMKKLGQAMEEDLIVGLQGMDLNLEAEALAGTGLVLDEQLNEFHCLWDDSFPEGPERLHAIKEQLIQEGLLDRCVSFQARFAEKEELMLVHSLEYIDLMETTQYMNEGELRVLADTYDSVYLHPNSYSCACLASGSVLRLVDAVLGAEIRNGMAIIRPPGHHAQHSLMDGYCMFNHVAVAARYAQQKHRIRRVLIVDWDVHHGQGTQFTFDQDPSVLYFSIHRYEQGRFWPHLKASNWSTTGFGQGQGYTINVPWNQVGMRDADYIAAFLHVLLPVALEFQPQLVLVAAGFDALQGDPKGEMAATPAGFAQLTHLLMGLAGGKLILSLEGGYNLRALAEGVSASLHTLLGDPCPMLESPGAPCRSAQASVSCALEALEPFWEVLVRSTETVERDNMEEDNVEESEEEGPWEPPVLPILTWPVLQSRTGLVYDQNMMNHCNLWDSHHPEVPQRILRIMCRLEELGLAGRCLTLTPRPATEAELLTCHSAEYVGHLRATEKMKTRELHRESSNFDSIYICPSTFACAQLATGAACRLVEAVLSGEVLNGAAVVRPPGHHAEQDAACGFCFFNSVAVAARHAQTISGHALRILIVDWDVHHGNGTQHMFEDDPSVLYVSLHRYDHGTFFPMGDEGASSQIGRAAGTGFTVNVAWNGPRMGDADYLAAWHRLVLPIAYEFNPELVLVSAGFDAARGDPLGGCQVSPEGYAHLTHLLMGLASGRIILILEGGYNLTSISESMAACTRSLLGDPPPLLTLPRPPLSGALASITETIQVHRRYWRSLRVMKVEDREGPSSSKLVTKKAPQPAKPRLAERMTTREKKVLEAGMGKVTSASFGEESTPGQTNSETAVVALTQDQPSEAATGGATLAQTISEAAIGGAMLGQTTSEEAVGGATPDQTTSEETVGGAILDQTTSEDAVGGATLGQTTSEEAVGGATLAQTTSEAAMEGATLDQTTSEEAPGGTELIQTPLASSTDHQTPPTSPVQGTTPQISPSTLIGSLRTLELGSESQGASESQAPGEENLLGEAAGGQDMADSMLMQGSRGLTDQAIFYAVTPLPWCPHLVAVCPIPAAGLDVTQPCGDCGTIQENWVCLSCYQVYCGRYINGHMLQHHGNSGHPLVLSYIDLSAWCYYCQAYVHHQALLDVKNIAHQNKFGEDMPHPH

[19] = target: CDK3/Cyclin E (Homo sapiens) (UniProt P24864+Q00526); assay: Inhibition of CDK3/cyclinE1 (unknown origin) at 100 nM preincubated for 20 mins followed by [gamma-33P]ATP addition measured after 120 mins in presence of ATP by Hot-SpotSM kinase assay relative to control; assay type: protein-complex assay; settings: time 140.0 min
CDK3/Cyclin E (Homo sapiens), sequence (P24864 whole entry, looked up): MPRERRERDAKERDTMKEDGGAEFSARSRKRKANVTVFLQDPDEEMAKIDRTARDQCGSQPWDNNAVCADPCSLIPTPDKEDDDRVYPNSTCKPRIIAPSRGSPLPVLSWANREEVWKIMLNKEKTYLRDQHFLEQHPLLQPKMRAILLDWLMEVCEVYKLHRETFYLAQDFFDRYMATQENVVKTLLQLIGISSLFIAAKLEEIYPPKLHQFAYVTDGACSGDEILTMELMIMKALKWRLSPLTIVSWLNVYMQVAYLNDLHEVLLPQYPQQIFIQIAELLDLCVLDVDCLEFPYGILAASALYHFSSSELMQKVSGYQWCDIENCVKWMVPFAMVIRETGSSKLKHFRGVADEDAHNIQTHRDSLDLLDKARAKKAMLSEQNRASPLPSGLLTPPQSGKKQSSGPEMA
CDK3/Cyclin E (Homo sapiens), sequence (Q00526 whole entry, looked up): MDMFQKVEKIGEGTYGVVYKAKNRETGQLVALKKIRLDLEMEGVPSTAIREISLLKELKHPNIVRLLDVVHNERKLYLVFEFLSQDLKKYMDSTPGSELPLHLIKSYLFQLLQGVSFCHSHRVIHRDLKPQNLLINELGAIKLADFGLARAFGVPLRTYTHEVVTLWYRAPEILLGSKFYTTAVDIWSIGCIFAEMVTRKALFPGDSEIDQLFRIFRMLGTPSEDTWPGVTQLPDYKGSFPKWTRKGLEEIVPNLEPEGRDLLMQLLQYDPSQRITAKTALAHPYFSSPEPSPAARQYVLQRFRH

[20] = target: Cyclin-dependent kinase 9 (Homo sapiens, UniProt P50750); assay: Inhibition of CDK9 (unknown origin) preincubated for 20 mins followed by [gamma-33P]ATP addition measured after 120 mins in presence of ATP by Hot-SpotSM kinase assay
Cyclin-dependent kinase 9, sequence (P50750 whole entry): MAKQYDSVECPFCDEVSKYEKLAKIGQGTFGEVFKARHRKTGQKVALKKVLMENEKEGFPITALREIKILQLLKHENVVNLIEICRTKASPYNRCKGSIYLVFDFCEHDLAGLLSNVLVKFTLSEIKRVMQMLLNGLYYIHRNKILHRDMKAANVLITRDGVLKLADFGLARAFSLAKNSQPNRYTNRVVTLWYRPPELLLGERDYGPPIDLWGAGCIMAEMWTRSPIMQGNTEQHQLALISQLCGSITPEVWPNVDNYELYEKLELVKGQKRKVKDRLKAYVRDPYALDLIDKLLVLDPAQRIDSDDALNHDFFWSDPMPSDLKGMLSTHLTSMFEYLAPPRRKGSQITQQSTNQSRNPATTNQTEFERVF

[21] = Bioavailability in Sprague-Dawley rat at 25 mg/kg, po measured upto 8 hrs by LC/MS-MS analysis; assay type: ADME, organism-based; settings: in vivo
[22] = target: Histone deacetylase 2 (Homo sapiens, UniProt Q92769); assay: Inhibition of recombinant human HDAC2 using HDAC substrate incubated for 30 mins by fluorescence based assay
Histone deacetylase 2, sequence (Q92769 whole entry): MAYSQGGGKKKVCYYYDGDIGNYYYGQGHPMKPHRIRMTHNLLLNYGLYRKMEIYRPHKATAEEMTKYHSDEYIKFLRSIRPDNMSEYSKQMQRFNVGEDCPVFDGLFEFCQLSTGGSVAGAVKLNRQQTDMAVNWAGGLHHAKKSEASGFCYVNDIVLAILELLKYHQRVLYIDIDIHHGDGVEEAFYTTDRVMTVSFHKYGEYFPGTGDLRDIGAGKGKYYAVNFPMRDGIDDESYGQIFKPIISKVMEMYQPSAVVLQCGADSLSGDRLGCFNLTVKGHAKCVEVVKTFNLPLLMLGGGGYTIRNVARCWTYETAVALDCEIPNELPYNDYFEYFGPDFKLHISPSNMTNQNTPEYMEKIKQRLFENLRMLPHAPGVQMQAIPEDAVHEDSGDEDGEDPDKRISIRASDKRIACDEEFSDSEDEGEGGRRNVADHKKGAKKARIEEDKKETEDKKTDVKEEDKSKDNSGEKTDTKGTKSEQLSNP

[23] = target: Cyclin-Y/Cyclin-dependent kinase 16 (Homo sapiens) (UniProt Q00536+Q8ND76); settings: dose 100.0 nM, time 140.0 min
[24] = Cmax in Sprague-Dawley rat at 5 mg/kg, iv measured upto 6 hrs by LC/MS-MS analysis; assay type: ADME, organism-based; parameters: time < 6 hrs, dose 5 mg/kg, route iv; settings: in vivo
[25] = system: U-937; assay: Induction of apoptosis in human U-937 cells assessed as early apoptotic cells at 0.5 uM incubated for 48 hrs by annexin V-FITC/PI satining based flow cytometry (reference value: 0.945 %); assay type: functional
[26] = target: Histone deacetylase 9 (Homo sapiens, UniProt Q9UKV0); assay: Inhibition of recombinant human HDAC9 using HDAC substrate incubated for 30 mins by fluorescence based assay
Histone deacetylase 9, sequence (Q9UKV0 whole entry): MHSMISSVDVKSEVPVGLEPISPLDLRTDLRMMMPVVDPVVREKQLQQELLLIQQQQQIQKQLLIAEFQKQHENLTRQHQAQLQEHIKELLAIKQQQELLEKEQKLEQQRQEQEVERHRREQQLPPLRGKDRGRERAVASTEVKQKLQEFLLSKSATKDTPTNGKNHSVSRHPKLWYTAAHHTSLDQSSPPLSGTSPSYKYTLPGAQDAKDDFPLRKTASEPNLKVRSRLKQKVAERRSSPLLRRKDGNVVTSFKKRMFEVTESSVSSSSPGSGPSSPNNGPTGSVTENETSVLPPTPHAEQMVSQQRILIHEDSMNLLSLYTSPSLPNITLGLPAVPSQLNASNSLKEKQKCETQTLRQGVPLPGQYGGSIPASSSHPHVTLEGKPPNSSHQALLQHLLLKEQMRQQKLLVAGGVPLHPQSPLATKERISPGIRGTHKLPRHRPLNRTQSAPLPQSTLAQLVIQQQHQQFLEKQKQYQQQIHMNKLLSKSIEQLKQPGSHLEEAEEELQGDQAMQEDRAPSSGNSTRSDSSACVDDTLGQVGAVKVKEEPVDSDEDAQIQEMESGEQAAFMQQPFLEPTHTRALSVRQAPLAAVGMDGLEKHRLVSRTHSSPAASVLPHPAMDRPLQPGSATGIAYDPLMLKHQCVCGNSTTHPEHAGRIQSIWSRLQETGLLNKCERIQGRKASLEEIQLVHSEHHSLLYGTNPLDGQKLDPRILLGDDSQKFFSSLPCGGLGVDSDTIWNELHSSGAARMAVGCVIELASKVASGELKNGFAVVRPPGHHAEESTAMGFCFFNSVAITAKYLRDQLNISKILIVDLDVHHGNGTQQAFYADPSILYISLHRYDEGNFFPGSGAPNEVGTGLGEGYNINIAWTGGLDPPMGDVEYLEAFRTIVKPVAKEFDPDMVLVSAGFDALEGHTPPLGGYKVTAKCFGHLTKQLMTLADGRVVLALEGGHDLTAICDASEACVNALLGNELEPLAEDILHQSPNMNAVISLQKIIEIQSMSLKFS

[27] = target: Histone deacetylase (Homo sapiens) (UniProt Q13547+O15379+Q9UBN7+Q92769+Q9UQL6+Q8WUI4+Q9BY41+Q96DB2+P56524+Q9UKV0+Q969S8); assay: Inhibition of HDAC in human nuclear extract using Ac-Arg-Gly-Lys(Ac)-AMC as substrate at 1 uM incubated overnight by fluorescence based assay relative to control; assay type: subcellular; settings: HeLa, Nucleus
[28] = system: HL-60; assay: Induction of apoptosis in human HL-60 cells assessed as late apoptotic cells at 0.5 uM incubated for 48 hrs by annexin V-FITC/PI satining based flow cytometry (reference value: 1.33 %); assay type: functional
[29] = system: HL-60; assay: Induction of differentiation in human HL-60 cells assessed as increase in CD11b positive cells at 1 uM incubated for 24 hrs by FITC staining based flow cytometry (reference value: 1.45 %); assay type: functional
[30] = system: U-937; assay: Induction of apoptosis in human U-937 cells assessed as viable cells at 0.5 uM incubated for 48 hrs by annexin V-FITC/PI satining based flow cytometry (reference value: 90.0 %); assay type: functional; settings: read-out: Activity
[31] = target: Cyclin-dependent kinase 1/cyclin B1 (Homo sapiens) (UniProt P06493+P14635); assay: Inhibition of CDK1/cyclinB1 (unknown origin) at 100 nM preincubated for 20 mins followed by [gamma-33P]ATP addition measured after 120 mins in presence of ATP by Hot-SpotSM kinase assay relative to control; assay type: protein-complex assay; settings: time 140.0 min
Cyclin-dependent kinase 1/cyclin B1 (Homo sapiens), sequence (P06493 whole entry, looked up): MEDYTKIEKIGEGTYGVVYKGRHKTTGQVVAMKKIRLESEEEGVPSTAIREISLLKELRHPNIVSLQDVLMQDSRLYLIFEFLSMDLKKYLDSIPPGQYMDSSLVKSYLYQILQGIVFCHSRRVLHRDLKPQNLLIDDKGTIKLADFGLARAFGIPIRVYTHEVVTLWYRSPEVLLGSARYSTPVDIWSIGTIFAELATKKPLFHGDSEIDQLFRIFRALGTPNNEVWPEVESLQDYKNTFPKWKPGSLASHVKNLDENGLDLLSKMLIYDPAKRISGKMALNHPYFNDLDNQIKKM
Cyclin-dependent kinase 1/cyclin B1 (Homo sapiens), sequence (P14635 whole entry, looked up): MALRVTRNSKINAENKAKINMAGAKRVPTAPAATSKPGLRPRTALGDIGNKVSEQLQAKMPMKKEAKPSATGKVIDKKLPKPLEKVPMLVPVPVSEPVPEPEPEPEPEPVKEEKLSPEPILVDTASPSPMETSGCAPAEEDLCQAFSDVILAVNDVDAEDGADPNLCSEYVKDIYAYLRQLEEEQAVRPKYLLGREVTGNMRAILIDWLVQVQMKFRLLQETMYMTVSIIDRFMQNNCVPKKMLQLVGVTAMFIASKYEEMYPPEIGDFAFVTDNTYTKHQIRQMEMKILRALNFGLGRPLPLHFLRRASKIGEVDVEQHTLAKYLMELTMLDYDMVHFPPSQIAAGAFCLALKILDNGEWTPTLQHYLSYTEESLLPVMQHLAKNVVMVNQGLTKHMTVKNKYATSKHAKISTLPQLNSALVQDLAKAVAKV

SMILES: Nc1cc(F)ccc1NC(=O)c1ccc(CNC(=O)/C=C/c2cccnc2)cc1 [TUCIDINOSTAT]
- Activity [1]: 4.66%
- Activity [2]: 11.5%
- Activity [3]: 73.4%
- Activity [4]: 4.06%
- Activity [5]: 1.65%
- viability at 0.6 µM [6]: 93.5%
- Activity [7]: 0.07%
- Activity [8]: 24.4%
- Activity [9]: 6.77%
- Activity [10]: 5.7%
- Activity [11]: 77.8%

- inhibition [13]: 21.4%
- inhibition [14]: 57.5%
- IC50 [15]: > 1000 nM
- inhibition [16]: 69.1%
- IC50 [18]: 723 nM
- inhibition [19]: 36.3%
- IC50 [20]: < 100 nM
- bioavailability [21]: 56.7%
- IC50 [22]: 98.8 nM
- inhibition [23]: 35.4%
- Cmax [24]: 3640 ng/mL
- IC50 [26]: > 1000 nM
- inhibition [27]: 100%
- inhibition [31]: 43.8%
SMILES: Nc1ccccc1NC(=O)c1ccc(NC(=O)c2n[nH]cc2NC(=O)c2c(Cl)cccc2Cl)cc1
- viability at 0.5 µM [12]: 94.4%
- viability at 0.2 µM [17]: 87.4%
- Activity [25]: 1.99%
- Activity [28]: 3.16%
- Activity [29]: 37.6%
- viability at 0.5 µM [30]: 79.8%
